Article PMC4592835 (Bioorganic & medicinal chemistry letters, 2015)

Legend:
[1] = tested on: caspase-3/7; experiment: Enzymatic activity of caspases-3/7 in treated MDA-MB-231 cells; assay type: cell-based, human; details: MDA-MB-231 cells treated at 10 μM
[2] = tested on: human metastatic breast cancer line, MDA-MB-231; details: different experimental conditions; cited from earlier work

Compound	potency relative to monomer M11 in caspase-3/7 activation [1]	in vivo activity profile compared with M11, in words [2]
CN[C@@H](C)C(=O)N[C@@H](CSCc1ccc(-c2ccc(CSC[C@H](NC(=O)[C@H](C)NC)C(=O)N3CCC[C@H]3C(=O)NC(c3ccccc3)c3ccccc3)cc2)cc1)C(=O)N1CCC[C@H]1C(=O)NC(c1ccccc1)c1ccccc1 [Compound D13]	~ 2.5 ×	–
CN[C@@H](C)C(=O)N[C@H]1CCCC[C@H]2CC[C@@H](C(=O)N[C@@H](c3ccccc3)c3cn(CCCCc4ccc(CCCCn5cc([C@@H](NC(=O)[C@@H]6CC[C@@H]7CCCC[C@H](NC(=O)[C@H](C)NC)C(=O)N76)c6ccccc6)nn5)cc4)nn3)N2C1=O [SM-164]	–	markedly improved activity profiles
